Article PMC6941357, “An in vitro toolbox to accelerate anti-malarial drug discovery and development” (Malaria Journal, 2020)
Several values for one entry are separate records, joined by “and”; a condition that tells them apart may be missing. Identical values can stand only once.

Tests used:
[1] = Solubility limited absorbable dose (SLAD) calculation with predicted human jejunal Peff; conditions: for An (absorption number): Peff × tres/R, minimum 1; for SLAD: Ssi × V (500 mL) × Mp; for Permeability classification: based on ref 80 and control compounds; for Predicted human Peff: from Caco-2 Papp via calibration plot
Text: Predicted Peff values were obtained from a calibration plot of literature Peff values vs measured Caco-2 Papp using either buffer or plasma as the transport medium (see Results section).

[2] = target: T1, Albumax medium (lipid rich bovine serum albumin) (Bos taurus, UniProt P02769); assay: Binding in Albumax medium via ultracentrifugation; format: in vitro ADME; conditions: bovine, isolated protein, pH 7.4
T1 construct: purchased Gibco, Thermo Fisher Scientific
Outline: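 Unbound fraction (fu) taken as protein-free supernate concentration over total concentration after ultracentrifuging compound-spiked Albumax at 37 °C (5% or 10% CO2, or air). Analysis used 1:1 mixing with the opposite blank matrix against a common pH 7.4 calibration; degradation judged by start versus end Ctotal.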

[3] = Solubility in biorelevant media; conditions: thermodynamic from solid; for solubility at 1 h: 37 °C, fassgf or other biorelevant
Outline: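 LC–MS quantification of supernatants, after two centrifugations, in triplicate against calibration standards. Media: FaSSGF sampled at 1 h; FaSSIF-V2, FeSSIF-V2 and pH 7.4 PBS sampled at 5–6 h; all at 37 °C on an orbital mixer at 600 rpm.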

[4] = In vitro metabolism (metabolic stability) in human liver microsomes; conditions: human, liver microsomes, pH 7.4, HLM CLint, human liver microsomes; average of n = 2 replicates; < 7 means < 15% loss over 60 min
Outline: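 Intrinsic clearance (µL/min/mg protein) came from the first-order substrate-depletion rate in human liver microsomes, using only the initial log-linear phase where kinetics deviated. Samples were quenched at 2, 5, 15, 30 and 60 min and quantified by LC–MS. Unbound CLint was obtained by dividing by microsomal fu.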

[5] = target: CYP2C19 (Homo sapiens, UniProt P33261); assay: Cytochrome P450 inhibition in human liver microsomes
Outline: (§1)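 Each compound is incubated with human liver microsomes and a probe substrate whose conversion is mediated by one CYP isoform. Reactions are then quenched with ice-cold acetonitrile, and the metabolite is determined by LC–MS.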

[6] = target: CYP2C9 (Homo sapiens, UniProt P11712); assay: as above; conditions: for CYP2C9 % inhibition at max conc: microsomes
Outline: as §1

[7] = target: CYP2D6 (Homo sapiens, UniProt P10635); assay: as above; conditions: for CYP2D6 % inhibition at max conc: microsomes
Outline: as §1

[8] = target: T2, CYP1A2 (Homo sapiens, UniProt P05177); assay: as above; conditions: for CYP1A2 % inhibition at max conc: microsomes
T2 sequence (P05177 1-516): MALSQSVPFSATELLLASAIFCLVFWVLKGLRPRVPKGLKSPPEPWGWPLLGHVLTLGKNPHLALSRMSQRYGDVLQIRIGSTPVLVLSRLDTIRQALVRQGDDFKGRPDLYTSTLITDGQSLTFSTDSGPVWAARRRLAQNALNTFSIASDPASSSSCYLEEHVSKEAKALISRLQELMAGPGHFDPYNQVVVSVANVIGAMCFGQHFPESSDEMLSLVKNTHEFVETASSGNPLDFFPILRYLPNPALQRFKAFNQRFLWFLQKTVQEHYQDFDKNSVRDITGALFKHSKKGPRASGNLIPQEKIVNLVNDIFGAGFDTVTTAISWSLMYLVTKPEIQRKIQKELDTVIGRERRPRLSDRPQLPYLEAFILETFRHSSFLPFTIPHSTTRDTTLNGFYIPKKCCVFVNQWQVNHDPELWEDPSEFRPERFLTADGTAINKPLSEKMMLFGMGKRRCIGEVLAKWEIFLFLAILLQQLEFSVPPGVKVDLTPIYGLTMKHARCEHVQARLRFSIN
Outline: as §1

[9] = target: CYP3A4 (Homo sapiens, UniProt P08684); assay: as above; conditions: for IC50: highest concentration tested 20 µM
Outline: as §1

[10] = phosphate buffered saline pH 7.4, 37 °C, pH 7.4, aqueous buffer
[11] = CYP3A4 (midaz) IC50, human liver microsomes, CYP3A4 (midaz)
[12] = CYP3A4 (test) IC50, human liver microsomes, CYP3A4 (test)

Chain of CYP3A4 (P08684 whole entry): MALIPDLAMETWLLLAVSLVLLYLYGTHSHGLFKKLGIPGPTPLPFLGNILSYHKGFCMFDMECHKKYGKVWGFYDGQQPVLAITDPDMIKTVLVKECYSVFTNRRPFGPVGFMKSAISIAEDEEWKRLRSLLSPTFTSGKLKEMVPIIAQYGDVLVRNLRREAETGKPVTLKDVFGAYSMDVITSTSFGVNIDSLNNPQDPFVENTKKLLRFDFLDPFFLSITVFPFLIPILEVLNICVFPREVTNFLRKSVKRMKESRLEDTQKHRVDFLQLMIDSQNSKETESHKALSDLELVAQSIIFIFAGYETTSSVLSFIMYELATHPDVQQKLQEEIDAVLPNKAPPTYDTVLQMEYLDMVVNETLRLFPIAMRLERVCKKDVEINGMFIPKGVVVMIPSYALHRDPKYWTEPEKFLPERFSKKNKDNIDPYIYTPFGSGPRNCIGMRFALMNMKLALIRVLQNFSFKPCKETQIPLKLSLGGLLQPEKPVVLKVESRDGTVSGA
Chain of CYP2C9 (P11712 whole entry): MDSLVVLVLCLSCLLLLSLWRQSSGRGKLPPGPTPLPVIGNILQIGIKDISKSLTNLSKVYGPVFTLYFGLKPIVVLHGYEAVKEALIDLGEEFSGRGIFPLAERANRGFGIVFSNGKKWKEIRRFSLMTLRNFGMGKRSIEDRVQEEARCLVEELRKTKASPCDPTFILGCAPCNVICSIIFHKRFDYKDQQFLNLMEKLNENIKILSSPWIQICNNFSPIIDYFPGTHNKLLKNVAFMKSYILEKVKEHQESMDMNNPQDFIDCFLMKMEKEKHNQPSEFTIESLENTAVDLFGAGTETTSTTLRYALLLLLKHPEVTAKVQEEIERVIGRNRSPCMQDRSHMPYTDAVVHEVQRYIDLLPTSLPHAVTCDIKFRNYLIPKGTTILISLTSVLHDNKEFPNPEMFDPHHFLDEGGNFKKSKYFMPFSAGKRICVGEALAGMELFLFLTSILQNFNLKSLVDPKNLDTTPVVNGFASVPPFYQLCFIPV
Chain of CYP2D6 (P10635 whole entry): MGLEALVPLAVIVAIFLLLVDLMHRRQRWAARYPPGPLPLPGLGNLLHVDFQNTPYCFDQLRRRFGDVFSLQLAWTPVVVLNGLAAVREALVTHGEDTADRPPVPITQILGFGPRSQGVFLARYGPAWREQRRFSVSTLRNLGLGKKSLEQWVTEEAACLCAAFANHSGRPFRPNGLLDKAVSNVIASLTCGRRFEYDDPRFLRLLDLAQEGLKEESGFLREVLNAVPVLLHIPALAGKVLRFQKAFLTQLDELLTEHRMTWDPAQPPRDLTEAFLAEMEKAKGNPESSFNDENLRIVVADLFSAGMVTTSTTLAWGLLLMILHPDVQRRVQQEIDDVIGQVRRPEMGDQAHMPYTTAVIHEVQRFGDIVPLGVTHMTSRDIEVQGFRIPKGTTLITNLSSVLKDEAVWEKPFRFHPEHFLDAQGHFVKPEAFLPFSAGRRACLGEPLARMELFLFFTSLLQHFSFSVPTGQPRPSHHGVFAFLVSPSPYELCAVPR
T1 sequence (P02769 25-607): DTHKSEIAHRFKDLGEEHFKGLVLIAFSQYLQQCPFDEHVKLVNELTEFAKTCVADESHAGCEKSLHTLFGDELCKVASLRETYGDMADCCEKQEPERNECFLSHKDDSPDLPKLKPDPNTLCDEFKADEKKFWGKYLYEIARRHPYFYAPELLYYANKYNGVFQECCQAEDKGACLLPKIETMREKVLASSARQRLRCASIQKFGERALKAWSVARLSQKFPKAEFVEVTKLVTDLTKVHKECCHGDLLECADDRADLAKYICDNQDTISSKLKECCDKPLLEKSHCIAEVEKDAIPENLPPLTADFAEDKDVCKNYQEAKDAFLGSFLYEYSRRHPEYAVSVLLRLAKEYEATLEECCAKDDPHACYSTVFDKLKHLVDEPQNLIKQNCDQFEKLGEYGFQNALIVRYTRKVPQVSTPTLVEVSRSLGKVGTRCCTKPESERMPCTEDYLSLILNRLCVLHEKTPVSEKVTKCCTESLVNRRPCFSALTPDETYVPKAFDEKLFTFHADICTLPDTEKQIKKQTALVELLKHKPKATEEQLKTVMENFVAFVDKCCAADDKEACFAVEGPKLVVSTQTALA
Chain of CYP2C19 (P33261 whole entry, canonical isoform): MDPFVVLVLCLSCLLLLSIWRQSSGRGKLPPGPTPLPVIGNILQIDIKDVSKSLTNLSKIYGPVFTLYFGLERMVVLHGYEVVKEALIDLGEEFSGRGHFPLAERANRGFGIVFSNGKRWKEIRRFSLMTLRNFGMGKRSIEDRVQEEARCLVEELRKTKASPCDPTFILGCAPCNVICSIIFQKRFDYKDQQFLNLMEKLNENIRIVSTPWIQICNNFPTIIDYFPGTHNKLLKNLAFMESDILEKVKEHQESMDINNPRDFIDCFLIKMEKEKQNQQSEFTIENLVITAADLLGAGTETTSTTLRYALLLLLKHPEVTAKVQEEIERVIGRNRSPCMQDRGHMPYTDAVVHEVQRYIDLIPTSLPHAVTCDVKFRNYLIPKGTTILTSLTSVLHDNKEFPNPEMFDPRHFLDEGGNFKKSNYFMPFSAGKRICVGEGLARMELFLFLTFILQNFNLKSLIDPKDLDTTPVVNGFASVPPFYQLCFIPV

Row | SMILES | An (absorption number) [1] | SLAD [1] [mg] | Permeability classification [1] | Predicted human Peff [1] | fraction unbound at […], 500 ng/mL [2] | solubility at 1 h ([3]; FaSSGF) | solubility ([3]; FaSSIF-V2, 37 °C, fassif) | solubility ([3]; FeSSIF-V2, 37 °C, fessif) | solubility [3, 10] | microsomal CLint at 1 µM [4] [µL/min/mg] | IC50 [5] [µM] | IC50 [6] [µM] | CYP2C9 % inhibition at max conc [6] | IC50 [7] [µM] | CYP2D6 % inhibition at max conc [7] | IC50 [8] [µM] | CYP1A2 % inhibition at max conc [8] | CYP2C19 % inhibition at max conc ([5]; microsomes) | IC50 [9, 11] [µM] | CYP3A4 (midaz) % inhibition at max conc ([9]; microsomes) | other results
1 | CC[C@H]1OC(=O)[C@H](C)[C@@H](O[C@H]2C[C@@](C)(OC)[C@@H](O)[C@H](C)O2)[C@H](C)[C@@H](O[C@@H]2O[C@H](C)C[C@H](N(C)C)[C@H]2O)[C@](C)(O)C[C@@H](C)CN(C)[C@H](C)[C@@H](O)[C@]1(C)O [Azithromycin] | 1.0 | 720 | Low (< 50% absorption (low)) | 0.16 10^−4 cm/s | 0.76 ± 0.065 | 1180 µg/mL and 1570 µM | 1440 µg/mL and 1930 µM | > 2000 µg/mL and > 2670 µM | > 2000 µg/mL and > 2670 µM | < 7 | > 20 | > 20 | nmi | > 20 | nmi | > 20 | nmi | – | – | – | inhibition at 20 µM ([5]; human, microsomes, pH 7.4): 29%
2 | CC1(C)N=C(N)N=C(N)N1c1ccc(Cl)cc1 [Cycloguanil] | – | – | – | – | 0.88 ± 0.057 | > 2000 µg/mL and > 7950 µM | > 2000 µg/mL and > 7950 µM | 533 µg/mL and 2120 µM | > 2000 µg/mL and > 7950 µM | < 7 | > 20 | > 20 | nmi | 6 | – | > 20 | nmi | nmi | > 20 | nmi | IC50 [9, 12]: > 20 µM; CYP3A4 (test) % inhibition at max conc ([9]; microsomes): nmi; Ki [7]: 3.7 µM
3 | CCNCc1cc(Nc2ccnc3cc(Cl)ccc23)ccc1O [Desethylamodiaquine] | – | – | – | – | 0.75 ± 0.074 | – | – | – | – | 13.3 | > 18 | > 18 | nmi | 2.6 | – | > 18 | nmi | nmi | > 18 | nmi | Ki [7]: 1.6 µM
4 | C[C@H]1c2cccc(O)c2C(=O)C2=C(O)[C@]3(O)C(=O)C(C(N)=O)=C(O)[C@@H](N(C)C)[C@@H]3[C@@H](O)[C@@H]21 [Doxycyclin] | 1.0 | > 1000 | Intermediate (50–84% absorption (intermediate)) | 0.70 10^−4 cm/s | 0.41 ± 0.023 | > 2000 µg/mL and > 4500 µM | > 2000 µg/mL and > 4500 µM | > 2000 µg/mL and > 4500 µM | > 2000 µg/mL and > 4500 µM | < 7 | > 20 | > 20 | nmi | > 20 | nmi | – | – | nmi | > 20 | nmi | solubility ([1]; FaSSIF): > 2000 µg/mL; solubility ([3]; FaSSGF, FaSSIF-V2, FeSSIF-V2 and PBS pH 7.4, 37 °C, pH 7.4, aqueous buffer): > 2000 µg/mL; IC50 [9, 12]: > 20 µM; inhibition at 20 µM ([9]; human, microsomes, pH 7.4, CYP3A4 (test) % inhibition at max conc): 22%
